Laboratory results: ChEMBL document CHEMBL3886529, “PDE10a inhibitors for the treatment of type II diabetes” (2016)

Biological target: T1, cAMP and cAMP-inhibited cGMP 3',5'-cyclic phosphodiesterase 10A (Rattus norvegicus, UniProt Q9QYJ6)
T1 sequence (Q9QYJ6 whole entry): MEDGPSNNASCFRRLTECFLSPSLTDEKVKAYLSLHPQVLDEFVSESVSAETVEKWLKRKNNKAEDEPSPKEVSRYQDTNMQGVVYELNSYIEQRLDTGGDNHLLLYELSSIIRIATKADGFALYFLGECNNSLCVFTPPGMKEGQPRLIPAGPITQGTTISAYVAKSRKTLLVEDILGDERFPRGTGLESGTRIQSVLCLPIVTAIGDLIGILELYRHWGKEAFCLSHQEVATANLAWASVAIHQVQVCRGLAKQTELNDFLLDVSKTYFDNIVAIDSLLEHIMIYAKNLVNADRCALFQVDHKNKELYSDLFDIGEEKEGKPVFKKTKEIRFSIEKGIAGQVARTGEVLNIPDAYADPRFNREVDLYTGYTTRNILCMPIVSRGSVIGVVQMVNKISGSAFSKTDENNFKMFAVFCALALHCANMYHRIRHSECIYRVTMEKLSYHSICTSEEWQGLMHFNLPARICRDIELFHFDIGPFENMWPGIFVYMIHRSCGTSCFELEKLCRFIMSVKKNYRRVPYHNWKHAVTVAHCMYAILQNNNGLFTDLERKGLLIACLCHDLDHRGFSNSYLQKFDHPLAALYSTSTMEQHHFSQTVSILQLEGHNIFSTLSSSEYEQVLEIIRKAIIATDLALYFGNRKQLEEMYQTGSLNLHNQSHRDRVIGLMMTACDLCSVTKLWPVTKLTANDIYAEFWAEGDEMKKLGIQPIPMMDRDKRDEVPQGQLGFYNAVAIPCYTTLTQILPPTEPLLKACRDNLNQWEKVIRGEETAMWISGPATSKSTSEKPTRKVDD
Experiment: In Vitro Assay rPDE10: Rat recombinant PDE10a (rPDE10a) was expressed in Sf9 cells using a recombinant rPDE10a baculovirus construct. Cells were harvested after 48 h of infection and the rPDE10a protein was purified by metal chelate chromatography on Ni-sepharose 6FF. Tested compounds were dissolved and diluted in 100% DMSO to a concentration 100 fold of the final concentration in the assay. Compound dilutions (0.4 uL) were added in 384 well plates to 20 uL of incubation buffer (50 mM Tris pH 7.8, 8.3 mM MgCl2, 1.7 mM EGTA). 10 uL of rPDE10a enzyme in incubation buffer was added and the reaction was started by addition of 10 uL substrate to a final concentration of 60 nM cAMP and 0.008 uCi 3H-cAMP. The reaction was incubated for 60 min at rt. After incubation, the reaction was stopped with 20 uL of 17.8 mg/mL PDE SPA beads. After sedimentation of the beads during 30 min the radioactivity was measured in a Perkin Elmer Topcount scintillation counter and results were expressed as cpm. For blank values the enz

SMILES	IC50 [nM]
O=C1Nc2ccc(-c3cnc(N4CCOCC4)c4nc(CCc5ccc6ccccc6n5)cn34)cc2C1(F)F	19
c1ccc2nc(OCc3cn4c(C5CCNCC5)cnc(N5CCOCC5)c4n3)ccc2c1	562
O=C(O)c1cc(/C=C/c2cn3ccnc(N4CCOCC4)c3n2)nc2ccccc12	9
